These results are taken from BindingDB's records for doi:10.1016/j.bmcl.2013.01.017 (Vanderbilt University Medical Center, 2013).

SMILES strings stand for the structures.

The target in this experiment is T1, Muscarinic acetylcholine receptor M1 (Homo sapiens, UniProt P11229).
T1 sequence (P11229 whole entry): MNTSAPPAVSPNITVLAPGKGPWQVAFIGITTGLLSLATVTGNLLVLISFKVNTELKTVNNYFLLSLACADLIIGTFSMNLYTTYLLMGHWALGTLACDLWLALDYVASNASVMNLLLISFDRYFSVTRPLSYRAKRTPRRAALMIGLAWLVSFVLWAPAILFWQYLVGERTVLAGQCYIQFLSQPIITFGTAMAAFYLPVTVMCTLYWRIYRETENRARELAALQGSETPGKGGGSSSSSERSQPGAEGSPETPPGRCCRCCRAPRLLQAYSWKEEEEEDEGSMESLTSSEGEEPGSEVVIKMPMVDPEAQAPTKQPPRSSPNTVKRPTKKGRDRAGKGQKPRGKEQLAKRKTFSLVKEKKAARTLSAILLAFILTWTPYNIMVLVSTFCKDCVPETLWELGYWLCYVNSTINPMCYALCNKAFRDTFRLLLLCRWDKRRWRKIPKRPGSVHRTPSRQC
Put plainly: Positive allosteric modulation of human muscarinic M1 receptor.

One may read the EC50 as the midpoint of the concentration-response curve. Read a low EC50 as greater potency. On to `Cn1cc(-c2ccc(CN3C(=O)C4(CCN(C5CCCC5)C4)c4ccccc43)c(F)c2)cn1` (stereo unspecified), for which the EC50 is > 10 µM.
